Data from US10231453B2, “5-substituted imidazole derivatives” (BAYER CROPSCIENCE AKTIENGESELLSCHAFT, priority 2015, dated 2019).

Assays:
[1] = test system: Septoria tritici; assay: In vivo preventive test on Septoria tritici (leaf spot on wheat), Examples E, Q3 and R5; details: Zymoseptoria tritici, 576 h, 500 ppm of active ingredient; wheat, preventive spray, evaluated 24 days after inoculation; read-out: efficacy
[2] = test system: Puccinia recondita; assay: In vivo preventive test on Puccinia recondita (brown rust on wheat), Examples C and R3; details: Puccinia recondita, 264 h; 500 ppm of active ingredient; wheat, preventive spray, evaluated 11 days after inoculation; read-out: efficacy
[3] = test system: Blumeria graminis fsp. hordei; assay: In vivo preventive Blumeria test (barley), Example K; details: 168 h, 500 ppm of active ingredient, preventive spray, evaluated 7 days after inoculation, read-out: efficacy
Excerpt: After the spray coating has been dried, the plants are dusted with spores of Blumeria graminis fsp. hordei.

[4] = test system: Uromyces appendiculatus; assay: In vivo preventive test on Uromyces appendiculatus (bean rust), Examples G and R7; details: 264 h, 500 ppm of active ingredient, bean, preventive spray, evaluated 11 days after inoculation, read-out: efficacy
[5] = test system: Alternaria brassicae; assay: In vivo preventive test on Alternaria brassicae (leaf spot on radish), Examples A and R1; details: Alternaria brassicae, 144 h, 500 ppm of active ingredient, preventive spray, evaluated 6 days after inoculation, read-out: efficacy
[6] = test system: Fusarium nivale (var. majus); assay: In vivo preventive Fusarium nivale (var. majus) test (wheat), Example O; details: Microdochium nivale, 120 h, 500 ppm of active ingredient, preventive spray, evaluated 5 days after inoculation, read-out: efficacy
Excerpt: After the spray coating has been dried, the plants are slightly injured by using a sandblast and afterwards they are sprayed with a conidia suspension of Fusarium nivale (var. majus).

[7] = Measurement of LogP values by HPLC on reversed phase columns (EEC directive 79/831 Annex V.A8); format: physicochemical; details: method [a]: LC-UV, acidic range, 0.1% formic acid in water and acetonitrile as eluent; Table 1
Experimental: Measurement of Log P values was performed as outlined above.

[8] = test system: Pyrenophora teres; assay: In vivo preventive test on Pyrenophora teres (net blotch on barley), Examples D, Q2 and R4; details: Pyrenophora teres, 336 h, 500 ppm of active ingredient, preventive spray, evaluated 14 days after inoculation, read-out: efficacy
[9] = test system: Sphaerotheca fuliginea; assay: In vivo preventive test on Sphaerotheca fuliginea (powdery mildew on cucurbits), Examples F and R6; details: Podosphaera fuliginea, 360 h; 500 ppm of active ingredient; gherkin, preventive spray, evaluated 15 days after inoculation; read-out: efficacy
[10] = test system: Pyricularia oryzae; assay: whole plant or invertebrate; format: in vivo; details: 192 h, read-out: efficacy
[11] = test system: Leptosphaeria nodorum; assay: In vivo preventive Leptosphaeria nodorum test (wheat), Example N; details: Parastagonospora nodorum, 192 h, 500 ppm of active ingredient, preventive spray, evaluated 8 days after inoculation, read-out: efficacy
Excerpt: After the spray coating has been dried, the plants are sprayed with a spore suspension of Leptosphaeria nodorum.

[12] = test system: Venturia inaequalis; assay: In vivo preventive Venturia test (apples), Example J; details: 240 h, read-out: efficacy
Experimental: After the spray coating has dried on, the plants are inoculated with an aqueous conidia suspension of the causal agent of apple scab (Venturia inaequalis) and then remain for 1 day in an incubation cabinet at approximately 20° C. and a relative atmospheric humidity of 100%.
The plants are then placed in a greenhouse at approximately 21° C. and a relative atmospheric humidity of approximately 90%.
The test is evaluated 10 days after the inoculation.

[13] = test system: Botrytis cinerea; assay: In vivo preventive test on Botrytis cinerea (grey mould) on gherkin, Examples B, Q1 and R2; details: Botrytis cinerea, 500 ppm of active ingredient, preventive spray, evaluated 4 to 5 days after inoculation, read-out: efficacy
[14] = test system: Alternaria solani; assay: In vivo preventive Alternaria test (tomatoes), Example H; details: 72 h, 100 ppm of active ingredient, preventive spray, evaluated 3 days after inoculation, read-out: efficacy
[15] = test system: Phakopsora pachyrhizi; assay: In vivo preventive Phakopsora test (soybeans), Example I; details: 168 h, 100 ppm of active ingredient, preventive spray, evaluated 7 days after inoculation, read-out: efficacy
[16] = test system: Fusarium graminearum; assay: whole plant or invertebrate; format: in vivo; details: in Hordeum vulgare, 120 h, read-out: efficacy

| Structure (SMILES) | pest or weed control at 500 ppm [1] [%] | pest or weed control at 500 ppm [2] [%] | pest or weed control at 500 ppm [3] [%] | pest or weed control at 500 ppm [4] [%] | pest or weed control at 500 ppm [5] [%] | pest or weed control at 500 ppm [6] [%] | chromatographic logP [7] | pest or weed control at 500 ppm [8] [%] | pest or weed control at 500 ppm [9] [%] | pest or weed control at 500 ppm [10] [%] | pest or weed control at 500 ppm [11] [%] | pest or weed control at 100 ppm [12] [%] | pest or weed control at 500 ppm [13] [%] | pest or weed control at 100 ppm [14] [%] | pest or weed control at 100 ppm [15] [%] | pest or weed control at 500 ppm [16] [%] |
| --- | --- | --- | --- | --- | --- | --- | --- | --- | --- | --- | --- | --- | --- | --- | --- | --- |
| COC(=O)c1cncn1CC(O)(Cc1ccccc1Cl)C1(Cl)CC1 (stereo not shown) [Example I-01] | 90 to 100 | 90 to 100 | 90 to 100 | 90 to 100 | 80 to 89 | 70 to 79 | 2.82 | 90 to 100 | 90 to 100 |  |  |  |  |  |  |  |
| OC(Cc1c(Cl)ccnc1Cl)(Cn1cncc1Cl)C1(Cl)CC1 (stereo not shown) [Example I-11] | 90 to 100 | 80 to 89 |  | 90 to 100 |  | 80 to 89 | 2.02 | 80 to 89 | 90 to 100 | 80 to 89 | 80 to 89 |  |  |  |  |  |
| OC(Cc1ccccc1F)(Cn1cncc1Br)C1(Cl)CC1 (stereo not shown) [Example I-33] | 90 to 100 | 80 to 89 | 90 to 100 | 90 to 100 | 90 to 100 |  | 2.1 | 80 to 89 | 90 to 100 |  | 90 to 100 | 90 to 100 | 90 to 100 | 90 to 100 | 90 to 100 |  |
| N#Cc1cncn1CC(O)(Cc1ccc(Br)cc1Cl)C1(Cl)CC1 (stereo not shown) [Example I-41] | 90 to 100 | 90 to 100 | 90 to 100 | 90 to 100 |  | 80 to 89 | 3.52 |  | 90 to 100 |  | 70 to 79 |  |  |  |  | 90 to 100 |
| OC(Cc1ccc(Br)cc1F)(Cn1cncc1Cl)C1(Cl)CC1 (stereo not shown) [Example I-44] | 90 to 100 | 80 to 89 | 90 to 100 | 90 to 100 |  |  | 2.64 | 90 to 100 | 90 to 100 | 70 to 79 | 80 to 89 | 90 to 100 | 90 to 100 | 90 to 100 | 90 to 100 | 70 to 79 |
| N#Cc1cncn1CC(O)(Cc1cccc(Cl)c1Cl)C1(Cl)CC1 (stereo not shown) [Example I-49] | 90 to 100 | 90 to 100 | 90 to 100 | 90 to 100 |  | 80 to 89 | 3.25 | 90 to 100 | 90 to 100 | 80 to 89 | 80 to 89 |  |  |  |  | 70 to 79 |
| N#Cc1cncn1CC(O)(Cc1ccnc(Cl)c1Cl)C1(Cl)CC1 (stereo not shown) [Example I-50] | 90 to 100 | 80 to 89 | 90 to 100 | 90 to 100 |  | 90 to 100 | 2.47 | 80 to 89 | 90 to 100 | 70 to 79 |  | 80 to 89 |  | 70 to 79 | 80 to 89 |  |
| OC(Cc1ccncc1Cl)(Cn1cncc1Cl)C1(Cl)CC1 (stereo not shown) [Example I-72] | 90 to 100 | 80 to 89 | 90 to 100 | 90 to 100 |  | 90 to 100 | 1.52 | 80 to 89 | 90 to 100 | 90 to 100 | 90 to 100 |  | 70 to 79 |  |  | 70 to 79 |
| N#Cc1cncn1CC(O)(Cc1ccccc1C(F)(F)F)C1(Cl)CC1 (stereo not shown) [Example I-88] | 90 to 100 | 90 to 100 | 90 to 100 | 90 to 100 |  | 80 to 89 | 3.15 | 90 to 100 | 90 to 100 |  |  |  |  |  |  | 90 to 100 |
| N#Cc1cncn1CC(O)(Cc1ccccc1Cl)C1(F)CC1 (stereo not shown) [Example I-98] | 90 to 100 | 90 to 100 | 90 to 100 | 90 to 100 |  |  | 2.53 | 90 to 100 | 90 to 100 | 90 to 100 |  | 90 to 100 | 70 to 79 | 90 to 100 | 90 to 100 | 90 to 100 |
| N#Cc1cncn1CC(O)(Cc1ccc(F)c(F)c1F)C1(Cl)CC1 (stereo not shown) [Example I-103] | 90 to 100 | 90 to 100 | 90 to 100 | 90 to 100 |  |  | 2.92 | 80 to 89 | 90 to 100 |  |  | 80 to 89 |  | 80 to 89 | 90 to 100 | 90 to 100 |
| N#Cc1cncn1CC(O)(Cc1ccc(F)c(F)c1)C1(Cl)CC1 (stereo not shown) [Example I-109] | 90 to 100 | 90 to 100 | 90 to 100 | 90 to 100 |  | 80 to 89 | 2.78 | 90 to 100 | 90 to 100 |  |  |  |  |  |  | 90 to 100 |
| OC(Cc1ccc(F)cc1F)(Cn1cncc1Cl)C1(Cl)CC1 (stereo not shown) [Example I-126] | 90 to 100 | 90 to 100 | 90 to 100 | 90 to 100 |  |  |  | 90 to 100 | 90 to 100 | 90 to 100 |  |  | 90 to 100 | 90 to 100 | 90 to 100 | 90 to 100 |
| CC(C)(C)C(O)(Cc1ccccc1F)Cn1cncc1C#N (stereo not shown) [Example I-138] | 90 to 100 | 90 to 100 | 90 to 100 | 90 to 100 |  |  | 2.73 |  | 90 to 100 | 80 to 89 |  | 70 to 79 | 80 to 89 |  | 90 to 100 | 90 to 100 |
| N#Cc1cncn1CC(O)(Cc1ccnc(Cl)c1F)C1(Cl)CC1 (stereo not shown) [Example I-152] | 90 to 100 | 90 to 100 | 90 to 100 | 90 to 100 |  | 90 to 100 | 2.25 | 70 to 79 | 90 to 100 |  | 70 to 79 |  |  |  |  | 70 to 79 |
| N#Cc1cncn1CC(O)(Cc1ccc(F)cc1Cl)C1(Cl)CC1 (stereo not shown) [Example I-154] | 90 to 100 | 90 to 100 | 90 to 100 | 90 to 100 |  | 90 to 100 | 3 |  | 90 to 100 | 70 to 79 | 90 to 100 |  | 80 to 89 |  |  | 90 to 100 |
| OC(Cc1ccncc1F)(Cn1cncc1Cl)C1(Cl)CC1 (stereo not shown) [Example I-164] | 90 to 100 | 80 to 89 | 90 to 100 | 90 to 100 |  | 80 to 89 | 1.46 | 80 to 89 | 90 to 100 | 70 to 79 |  |  | 90 to 100 |  |  |  |
